Laboratory results taken from patent publication US20110100079A1, “METHOD FOR IMPARTING STRESS TOLERANCE TO PLANT” (priority 2007, published 2011).

Columns and labels:
Format in all cases: in vivo
“Momotaro” tomato [1] = test: Example 3 drying stress tolerance imparting test (tomato); conditions: 3 weeks
Protocol: Other cultivation conditions were as with the conditions of the drying stress test. Drying stress conditions: soil pF value: 2.3, 2.5, or 2.9, cultivation temperature: 23° C., relative humidity: 50%, illuminance: 5000 Lux (fluorescent light), light/dark cycle: 16 hours/8 hours (2) Cultivation period: 3 weeks (3) Soil: Kureha gardening soil manufactured by Kureha Corporation (fertilizer components: N:P:K=0.4:1.9:0.6 g/kg soil) (4) Plant preparation: A 50-cell tray was filled with Kureha gardening soil manufactured by Kureha Corporation (fertilizer components: N:P:K=0.4:1.9:0.6 g/kg soil), and seeds of a “Momotaro” tomato were sowed, thinly covered with Kureha gardening soil, and sufficiently watered to allow the seeds to sprout. When the leaves in the 2-leaf stage fully unfolded, the soil on the tomato roots was carefully washed away with running water, and a test was performed. (5) The chemicals used and the amount of a treatment solution applied were as in Example 1. (6) Amount of treatment solution applied: 10 ml/specimen for leaf spraying, 50 ml/specimen for fertigation Method of Drying Stress Tolerance Imparting Test Five tomato specimens as prepared above were planted in a 60-cm planter placed on a plant culture rack in an air-conditioned room. […] From immediately after planting the tomatoes, a treatment solution of Table 1 was sprayed onto the leaves or applied to the underground portions once a week. […] Five specimens (per planter) were prepared for each of the test plot and the control plots, plant bodies were collected 3 weeks after the beginning of the test such that the roots were not cut, the soil was washed away with running water, the fresh plant body-weights were measured, and a plant stress level and an extent of imparting plant stress tolerance were calculated according to Formula (ii) and (iii) above using the average of the weights.

“Momotaro” tomato [2] = test: Example 4 salt stress tolerance imparting test (tomato, tap water + NaCl); conditions: tap water + NaCl 3510 ppm, leaf, 2 weeks
Description: NaCl concentration 3510 ppm (water potential by NaCl: […]) (4) Cultivation period: two weeks (5) Plant preparation: A 50-cell tray was filled with Kureha gardening soil manufactured by Kureha Corporation (fertilizer components: N:P:K=0.4:1.9:0.6 g/kg soil), and seeds of a “Momotaro” tomato were sowed, thinly covered with Kureha gardening soil, and sufficiently irrigated to allow the seeds to sprout. When the leaves in the 2-leaf stage fully unfolded, the soil on the tomato roots was carefully washed away with running water, and a test was performed. (6) The chemicals used and the concentration of a treatment solution were as in Example 1 (7) Amount of application: 10 ml/specimen for leaf spraying, 50 ml/specimen for fertigation Method of Salt Stress Tolerance Imparting Test […]

“Momotaro” tomato [3] = test: Example 1 salt stress tolerance imparting test (tomato, hydroponic, Otsuka 1/2A + NaCl); conditions: NaCl 3510 ppm, leaf, 2 weeks
Protocol: (1) Salt stress-free test conditions: NaCl concentration (water potential by Nan): 0 ppm (0 MPa). Other cultivation conditions were as the same as the conditions of the drying stress test.
When the leaves in the 2-leaf stage fully unfolded, the soil on the tomato roots was carefully washed away with running water, and a test was performed.
Method of Salt Stress Tolerance Imparting Test
The environmental conditions in a climatic chamber were controlled so as to have a temperature of 23° C., an illuminance by a fluorescent light of 5000 Lux, and a daily light-dark cycle of a 16-hour light period and an 8-hour dark period. […] A treatment solution containing a compound of Table 1 in a specific concentration (the remainder was water) was prepared and sprayed onto the leaves or applied to the underground portion. In addition, a control plot to which no NaCl was added, not imposing a salt stress (this is a control plot for plant body weight 2 for Formula (ii) and is a stress-free control plot) and a control plot to which NaCl was added in various concentrations, imposing a salt stress, and to which the treatment solution was not applied (this is a control plot for plant body weight 1 for Formula (ii) and is a control plot including a salt stress) were prepared as controls. Ten specimens were prepared for each of the test plot and the control plots, and a plant stress level and an extent of imparting plant stress tolerance were calculated according to Formulas (II) above using as a fresh plant body weight the average of the fresh plant body weights of each specimen 2 weeks after the beginning of the test.

“Momotaro” tomato [4] = test: Standard test: standard extent of imparting plant salt stress tolerance; conditions: 100 ppm sprayed onto leaves 10 ml/specimen, NaCl 3510 ppm in tap water, fresh weight after 2 weeks vs salt-stressed untreated control plot 1
Protocol: Standard Test (I) Plant Preparation A 50-cell tray is filled with potting soil (fertilizer components: N:P:K=0.4:1.9:0.6 (g)/kg potting soil); and seeds of a “Momotaro” tomato (Takii Co., Ltd.) are sowed, thinly covered with potting soil, and sufficiently irrigated to allow the seeds to sprout. When the leaves in the 2-leaf stage are fully unfolded, the soil on the tomato roots is washed away with running water, and a test is performed. For the potting soil, Kureha gardening soil manufactured by Kureha Corporation may be used. (II) Test Condition Setting The environmental conditions are controlled such that the temperature is 23° C., the relative humidity is 50%, the illuminance is 5000 Lux, and the daily light-dark cycle includes a 16-hour light period and an 8-hour dark period. Such environmental conditions can be obtained by, for example, controlling the temperature in a room or a climate chamber where the temperature and the relative humidity can be controlled, and controlling illuminance by a fluorescent light or the like. […] (III) Treatment with Plant Stress Tolerance Imparting Composition […] A known surfactant or a like material that barely affects the plant may be used in the preparation of an aqueous dispersion. Test plot: An aqueous solution or an aqueous dispersion of a test compound (sugar derivative-type surfactant) (concentration: 100 ppm) is sprayed onto the leaves in an amount of 10 ml per tomato specimen. […] NaCl is added to a solution culture medium (creating a salt stress), but no test compound (plant stress tolerance imparting composition) is given to the tomato. Control plot 2: No NaCl is added to a solution culture medium (creating no salt stress), and no test compound (plant stress tolerance imparting composition) is given to the tomato. (IV) Calculation of Standard Extent of Imparting Plant Salt Stress Tolerance (%) […] The plant stress level (standard plant salt stress level) attained in the above-described standard test is about 130%. In this regard, the standard plant salt stress level can be calculated according to Formula (ii)′ below.

[5] = pF 2.3, leaf, 100 ppm once a week
[6] = pF 2.3, leaf, 200 ppm once a week

Row | Molecule | Extent of imparting plant stress tolerance (“Momotaro” tomato [1]; [5]) [%] | Extent of imparting plant stress tolerance (“Momotaro” tomato [2]; 100 ppm) [%] | Extent of imparting plant stress tolerance (“Momotaro” tomato [3]; 100 ppm) [%] | Standard extent of imparting plant salt stress tolerance (“Momotaro” tomato [4]) [%] | Extent of imparting plant stress tolerance (“Momotaro” tomato [1]; pF 2.5, leaf, 100 ppm once a week) [%] | Extent of imparting plant stress tolerance (“Momotaro” tomato [1]; pF 2.9, leaf, 100 ppm once a week) [%] | Extent of imparting plant stress tolerance (“Momotaro” tomato [1]; [6]) [%] | Extent of imparting plant stress tolerance (“Momotaro” tomato [2]; 200 ppm) [%] | Extent of imparting plant stress tolerance (“Momotaro” tomato [3]; 200 ppm) [%]
1 | Sucrose fatty acid ester (C18, HLB = 9) [Product of present invention 18] | 113 | 113 | 112 | 113 | – | – | – | – | –
2 | C[N+](C)(C)CC(=O)[O-] [Comparative product 3, Glycine betaine, reference compound] | 103 | 103 | 103 | 103 | – | – | – | – | –
3 | O=C(O)[C@@H]1CCCN1 [Comparative product 2, Proline, reference compound] | 103 | 103 | – | 102 | 102 | 103 | – | – | –
4 | POE (20) sorbitan monolauric acid ester [Product of present invention 12] | 115 | 116 | 116 | 116 | – | – | 118 | 117 | 120
5 | OC[C@H]1O[C@H](OC[C@H]2O[C@H](O[C@]3(CO)O[C@H](CO)[C@@H](O)[C@@H]3O)[C@H](O)[C@@H](O)[C@@H]2O)[C@H](O)[C@@H](O)[C@H]1O [Comparative product 4, Raffinose, reference compound] | 102 | 102 | – | 102 | – | – | – | – | –
6 | POE (6) sorbitan monooleic acid ester [Product of present invention 10] | 112 | 112 | 113 | 112 | – | – | – | – | –
7 | Sorbitan monooleic acid ester [Product of present invention 11] | 112 | 112 | 112 | 112 | – | – | – | – | –
8 | Sucrose fatty acid ester (C18, HLB = 15) [Product of present invention 20] | 117 | 116 | 113 | 116 | – | – | – | – | –
9 | Alkyl (C12-14) polyglycoside [Product of present invention 16] | 118 | 117 | 115 | 117 | – | – | – | – | –
10 | Sucrose fatty acid ester (C16, HLB = 15) [Product of present invention 21] | 117 | 117 | 114 | 117 | – | – | – | – | –
11 | POE (20) sorbitan monostearic acid ester [Product of present invention 14] | 115 | 114 | 116 | 114 | – | – | – | – | –
12 | Alkyl (C10) polyglycoside [Product of present invention 15] | 117 | 116 | 115 | 116 | – | – | 115 | 113 | 114
13 | Sucrose fatty acid ester (C18:1, HLB = 15) [Product of present invention 22] | 117 | 118 | – | 118 | – | – | 113 | 111 | 112
14 | POE (20) sorbitan monopalmitic acid ester [Product of present invention 13] | 116 | 116 | 117 | 116 | – | – | – | – | –
